Assays:
[1] = biological target: Receptor tyrosine-protein kinase erbB-4 (Homo sapiens) (UniProt Q15303); assay: Inhibition of ERBB4 (unknown origin) assessed as residual activity at 1000 nM by KINOMEscan analysis relative to control
[2] = system: Fibroblast growth factor receptor 3 (Homo sapiens), P22607 [G697C]; assay: Inhibition of FGFR3 G697C mutant (unknown origin) assessed as residual activity at 1000 nM by KINOMEscan analysis relative to control
[3] = biological target: Mitogen-activated protein kinase 7 (Homo sapiens) (UniProt Q13164); assay: Inhibition of ERK5 (unknown origin) assessed as residual activity at 1000 nM by KINOMEscan analysis relative to control
[4] = biological target: Serine/threonine-protein kinase PLK2 (Homo sapiens) (UniProt Q9NYY3); assay: Inhibition of PLK2 (unknown origin) assessed as residual activity at 1000 nM by KINOMEscan analysis relative to control
[5] = biological target: T1, Interleukin-1 receptor-associated kinase 3 (Homo sapiens) (UniProt Q9Y616); assay: Inhibition of IRAK3 (unknown origin) assessed as residual activity at 1000 nM by KINOMEscan analysis relative to control
T1 sequence (whole entry): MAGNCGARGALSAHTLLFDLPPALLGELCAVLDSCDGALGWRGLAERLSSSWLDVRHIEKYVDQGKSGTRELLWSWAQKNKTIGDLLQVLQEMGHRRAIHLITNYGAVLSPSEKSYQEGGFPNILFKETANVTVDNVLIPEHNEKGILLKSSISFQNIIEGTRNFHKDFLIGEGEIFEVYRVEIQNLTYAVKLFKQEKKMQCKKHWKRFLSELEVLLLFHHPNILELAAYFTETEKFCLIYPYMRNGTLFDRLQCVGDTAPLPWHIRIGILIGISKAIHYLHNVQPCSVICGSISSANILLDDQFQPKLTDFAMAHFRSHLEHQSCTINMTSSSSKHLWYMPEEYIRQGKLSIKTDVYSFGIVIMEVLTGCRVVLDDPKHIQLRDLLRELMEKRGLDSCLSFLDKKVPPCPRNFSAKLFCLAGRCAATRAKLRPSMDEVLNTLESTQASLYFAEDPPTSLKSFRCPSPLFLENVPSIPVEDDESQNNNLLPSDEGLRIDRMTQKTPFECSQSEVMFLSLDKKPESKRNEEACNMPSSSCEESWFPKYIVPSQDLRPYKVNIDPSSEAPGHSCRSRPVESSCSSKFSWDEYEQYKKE

[6] = biological target: LIM domain kinase 2 (Homo sapiens) (UniProt P53671); assay: Inhibition of LIMK2 (unknown origin) assessed as residual activity at 1000 nM by KINOMEscan analysis relative to control
[7] = biological target: Insulin-like growth factor 1 receptor (Homo sapiens) (UniProt P08069); assay: Inhibition of IGF1R (unknown origin) assessed as residual activity at 1000 nM by KINOMEscan analysis relative to control
[8] = biological target: Epidermal growth factor receptor (Homo sapiens, UniProt P00533); assay: Inhibition of EGFR (unknown origin) assessed as residual activity at 1000 nM by KINOMEscan analysis relative to control
[9] = biological target: Serine/threonine-protein kinase PAK 2 (Homo sapiens) (UniProt Q13177); assay: Inhibition of PAK2 (unknown origin) assessed as residual activity at 1000 nM by KINOMEscan analysis relative to control
[10] = biological target: G protein-coupled receptor kinase 4 (Homo sapiens) (UniProt P32298); assay: Inhibition of GRK4 (unknown origin) assessed as residual activity at 1000 nM by KINOMEscan analysis relative to control
[11] = biological target: Serine/threonine-protein kinase SBK1 (Homo sapiens) (UniProt Q52WX2); assay: Inhibition of SBK1 (unknown origin) assessed as residual activity at 1000 nM by KINOMEscan analysis relative to control
[12] = biological target: Peripheral plasma membrane protein CASK (Homo sapiens) (UniProt O14936); assay: Inhibition of CASK (unknown origin) assessed as residual activity at 1000 nM by KINOMEscan analysis relative to control
[13] = biological target: Serine/threonine-protein kinase/endoribonuclease IRE1 (Homo sapiens) (UniProt O75460); assay: Inhibition of ERN1 (unknown origin) assessed as residual activity at 1000 nM by KINOMEscan analysis relative to control
[14] = biological target: T2, Dual specificity tyrosine-phosphorylation-regulated kinase 2 (Homo sapiens) (UniProt Q92630); assay: Inhibition of DYRK2 (unknown origin) assessed as residual activity at 1000 nM by KINOMEscan analysis relative to control
T2 sequence (whole entry): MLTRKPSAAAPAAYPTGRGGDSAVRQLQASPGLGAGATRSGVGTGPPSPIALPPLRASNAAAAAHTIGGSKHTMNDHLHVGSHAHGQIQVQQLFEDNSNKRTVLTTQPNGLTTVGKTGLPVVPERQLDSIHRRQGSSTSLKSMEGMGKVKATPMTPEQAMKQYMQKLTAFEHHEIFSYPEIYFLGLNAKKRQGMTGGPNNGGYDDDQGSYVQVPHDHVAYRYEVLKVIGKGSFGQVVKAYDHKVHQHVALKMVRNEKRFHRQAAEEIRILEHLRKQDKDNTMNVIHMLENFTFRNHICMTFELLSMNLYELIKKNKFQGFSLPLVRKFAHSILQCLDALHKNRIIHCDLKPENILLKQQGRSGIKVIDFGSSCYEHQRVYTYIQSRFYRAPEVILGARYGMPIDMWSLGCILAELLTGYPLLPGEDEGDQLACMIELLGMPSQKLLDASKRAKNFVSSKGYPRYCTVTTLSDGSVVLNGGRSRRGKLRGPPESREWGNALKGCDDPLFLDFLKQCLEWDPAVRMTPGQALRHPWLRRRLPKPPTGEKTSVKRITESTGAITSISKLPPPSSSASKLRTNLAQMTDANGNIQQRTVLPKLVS

[15] = biological target: Serine/threonine-protein kinase PLK1 (Homo sapiens) (UniProt P53350); assay: Inhibition of PLK1 (unknown origin) assessed as residual activity at 1000 nM by KINOMEscan analysis relative to control
Sequence of Serine/threonine-protein kinase PLK1 (Homo sapiens) (P53350 whole entry): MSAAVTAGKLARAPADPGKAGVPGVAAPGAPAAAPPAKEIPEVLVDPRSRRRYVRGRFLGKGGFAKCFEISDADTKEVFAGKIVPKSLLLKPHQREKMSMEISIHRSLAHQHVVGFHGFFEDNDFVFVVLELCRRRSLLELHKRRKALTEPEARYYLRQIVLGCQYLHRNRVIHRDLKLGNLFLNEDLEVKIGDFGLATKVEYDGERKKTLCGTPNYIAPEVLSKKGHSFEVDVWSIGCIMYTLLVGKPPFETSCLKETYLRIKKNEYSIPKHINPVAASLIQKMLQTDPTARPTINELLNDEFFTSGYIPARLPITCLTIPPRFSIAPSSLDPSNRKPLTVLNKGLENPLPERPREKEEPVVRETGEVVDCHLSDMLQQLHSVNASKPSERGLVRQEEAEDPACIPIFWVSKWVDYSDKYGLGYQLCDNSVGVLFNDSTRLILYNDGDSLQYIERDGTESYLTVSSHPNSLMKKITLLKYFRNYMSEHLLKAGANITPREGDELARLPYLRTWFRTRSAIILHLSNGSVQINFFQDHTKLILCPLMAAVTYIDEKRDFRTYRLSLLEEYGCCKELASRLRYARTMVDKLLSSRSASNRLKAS

Sequence of Serine/threonine-protein kinase SBK1 (Homo sapiens) (Q52WX2 whole entry): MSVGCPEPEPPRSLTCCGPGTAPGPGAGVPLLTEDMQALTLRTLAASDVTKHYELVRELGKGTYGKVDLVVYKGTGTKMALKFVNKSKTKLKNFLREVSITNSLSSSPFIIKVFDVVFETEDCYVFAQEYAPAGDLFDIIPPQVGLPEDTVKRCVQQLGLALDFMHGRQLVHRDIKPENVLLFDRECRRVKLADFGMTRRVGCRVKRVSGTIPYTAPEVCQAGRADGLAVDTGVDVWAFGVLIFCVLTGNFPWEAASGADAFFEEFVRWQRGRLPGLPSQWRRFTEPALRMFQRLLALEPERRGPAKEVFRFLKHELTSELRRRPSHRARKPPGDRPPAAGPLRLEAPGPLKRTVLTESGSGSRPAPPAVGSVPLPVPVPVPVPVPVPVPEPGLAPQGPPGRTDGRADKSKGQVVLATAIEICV
Sequence of Fibroblast growth factor receptor 3 (Homo sapiens), P22607 [G697C] (P22607 whole entry G697C): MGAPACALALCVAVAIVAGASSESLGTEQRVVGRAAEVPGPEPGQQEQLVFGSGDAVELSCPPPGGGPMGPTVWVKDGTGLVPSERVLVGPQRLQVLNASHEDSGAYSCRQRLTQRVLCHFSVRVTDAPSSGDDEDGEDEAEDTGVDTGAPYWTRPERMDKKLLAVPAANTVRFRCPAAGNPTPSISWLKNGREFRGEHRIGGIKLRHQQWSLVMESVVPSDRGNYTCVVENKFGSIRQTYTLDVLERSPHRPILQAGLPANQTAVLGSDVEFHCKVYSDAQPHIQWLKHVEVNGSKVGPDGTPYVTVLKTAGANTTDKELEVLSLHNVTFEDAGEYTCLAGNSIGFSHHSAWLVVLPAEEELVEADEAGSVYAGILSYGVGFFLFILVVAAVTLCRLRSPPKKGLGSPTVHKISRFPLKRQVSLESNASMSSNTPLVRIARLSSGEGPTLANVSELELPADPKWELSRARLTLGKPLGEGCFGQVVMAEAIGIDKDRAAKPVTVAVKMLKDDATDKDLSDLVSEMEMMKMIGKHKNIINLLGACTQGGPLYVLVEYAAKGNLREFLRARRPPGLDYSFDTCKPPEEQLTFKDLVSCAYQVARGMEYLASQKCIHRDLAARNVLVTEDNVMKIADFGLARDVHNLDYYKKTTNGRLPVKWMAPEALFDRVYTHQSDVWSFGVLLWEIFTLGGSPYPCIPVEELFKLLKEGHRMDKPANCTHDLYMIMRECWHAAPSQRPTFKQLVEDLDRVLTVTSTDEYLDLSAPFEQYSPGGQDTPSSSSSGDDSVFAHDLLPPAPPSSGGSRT
Sequence of Serine/threonine-protein kinase/endoribonuclease IRE1 (Homo sapiens) (O75460 19-977 limits assumed): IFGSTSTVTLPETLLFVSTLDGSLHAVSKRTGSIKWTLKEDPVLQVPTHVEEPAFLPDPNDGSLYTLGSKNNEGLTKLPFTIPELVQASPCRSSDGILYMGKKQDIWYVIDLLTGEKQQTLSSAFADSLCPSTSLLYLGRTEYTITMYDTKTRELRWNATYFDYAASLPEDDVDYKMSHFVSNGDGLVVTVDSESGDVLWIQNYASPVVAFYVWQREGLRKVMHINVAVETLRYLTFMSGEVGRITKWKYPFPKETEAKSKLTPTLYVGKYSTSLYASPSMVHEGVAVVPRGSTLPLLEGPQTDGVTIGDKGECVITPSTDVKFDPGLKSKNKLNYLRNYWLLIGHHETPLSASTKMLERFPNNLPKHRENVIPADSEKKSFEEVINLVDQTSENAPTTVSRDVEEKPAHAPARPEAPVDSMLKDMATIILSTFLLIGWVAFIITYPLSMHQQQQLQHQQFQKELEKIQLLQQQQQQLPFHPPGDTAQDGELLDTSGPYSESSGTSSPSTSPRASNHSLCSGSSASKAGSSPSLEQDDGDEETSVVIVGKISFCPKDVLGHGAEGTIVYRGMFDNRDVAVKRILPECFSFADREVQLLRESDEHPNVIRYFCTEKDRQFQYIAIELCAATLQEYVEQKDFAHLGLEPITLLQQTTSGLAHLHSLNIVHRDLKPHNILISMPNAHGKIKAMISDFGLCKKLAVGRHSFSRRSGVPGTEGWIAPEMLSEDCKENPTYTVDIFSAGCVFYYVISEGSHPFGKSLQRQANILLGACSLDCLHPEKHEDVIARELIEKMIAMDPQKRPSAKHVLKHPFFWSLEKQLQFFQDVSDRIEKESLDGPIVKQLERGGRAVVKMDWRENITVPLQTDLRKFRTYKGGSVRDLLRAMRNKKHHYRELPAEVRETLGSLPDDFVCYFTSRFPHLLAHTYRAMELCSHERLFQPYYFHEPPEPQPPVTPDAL
Sequence of Serine/threonine-protein kinase PLK2 (Homo sapiens) (Q9NYY3 whole entry, looked up): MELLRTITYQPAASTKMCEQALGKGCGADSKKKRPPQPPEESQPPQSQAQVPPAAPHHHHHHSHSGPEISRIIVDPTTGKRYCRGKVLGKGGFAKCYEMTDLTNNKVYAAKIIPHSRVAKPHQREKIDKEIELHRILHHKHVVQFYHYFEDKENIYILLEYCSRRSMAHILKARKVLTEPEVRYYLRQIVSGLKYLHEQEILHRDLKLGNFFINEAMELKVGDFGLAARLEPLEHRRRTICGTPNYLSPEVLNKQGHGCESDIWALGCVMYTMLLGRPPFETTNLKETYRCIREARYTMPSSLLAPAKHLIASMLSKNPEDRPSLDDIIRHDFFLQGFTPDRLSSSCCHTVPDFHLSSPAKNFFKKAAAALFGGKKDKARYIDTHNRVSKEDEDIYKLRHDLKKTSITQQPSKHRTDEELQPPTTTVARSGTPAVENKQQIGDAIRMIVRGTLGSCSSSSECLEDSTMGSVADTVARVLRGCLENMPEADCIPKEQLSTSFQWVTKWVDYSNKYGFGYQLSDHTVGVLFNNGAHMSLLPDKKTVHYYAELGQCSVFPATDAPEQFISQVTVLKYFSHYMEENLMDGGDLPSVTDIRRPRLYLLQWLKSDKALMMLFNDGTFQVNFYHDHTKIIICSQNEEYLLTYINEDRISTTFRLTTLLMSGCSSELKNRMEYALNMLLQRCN
Sequence of G protein-coupled receptor kinase 4 (Homo sapiens) (P32298 whole entry, looked up): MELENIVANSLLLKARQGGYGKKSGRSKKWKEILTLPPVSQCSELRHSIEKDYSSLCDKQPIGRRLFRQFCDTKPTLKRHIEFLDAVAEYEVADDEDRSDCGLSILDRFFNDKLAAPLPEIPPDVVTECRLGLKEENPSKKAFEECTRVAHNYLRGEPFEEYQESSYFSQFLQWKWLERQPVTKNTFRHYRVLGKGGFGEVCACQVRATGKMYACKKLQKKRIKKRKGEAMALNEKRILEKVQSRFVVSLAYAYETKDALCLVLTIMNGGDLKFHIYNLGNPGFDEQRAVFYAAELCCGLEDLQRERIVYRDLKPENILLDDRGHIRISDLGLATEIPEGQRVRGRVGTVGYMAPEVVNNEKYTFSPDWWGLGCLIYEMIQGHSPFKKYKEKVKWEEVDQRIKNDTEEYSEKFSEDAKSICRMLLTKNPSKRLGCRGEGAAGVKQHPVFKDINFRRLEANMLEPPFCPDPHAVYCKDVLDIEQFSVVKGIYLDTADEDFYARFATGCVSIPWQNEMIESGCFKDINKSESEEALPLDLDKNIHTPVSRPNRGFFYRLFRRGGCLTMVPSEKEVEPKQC
Sequence of LIM domain kinase 2 (Homo sapiens) (P53671 whole entry, looked up, the tested form may be a part): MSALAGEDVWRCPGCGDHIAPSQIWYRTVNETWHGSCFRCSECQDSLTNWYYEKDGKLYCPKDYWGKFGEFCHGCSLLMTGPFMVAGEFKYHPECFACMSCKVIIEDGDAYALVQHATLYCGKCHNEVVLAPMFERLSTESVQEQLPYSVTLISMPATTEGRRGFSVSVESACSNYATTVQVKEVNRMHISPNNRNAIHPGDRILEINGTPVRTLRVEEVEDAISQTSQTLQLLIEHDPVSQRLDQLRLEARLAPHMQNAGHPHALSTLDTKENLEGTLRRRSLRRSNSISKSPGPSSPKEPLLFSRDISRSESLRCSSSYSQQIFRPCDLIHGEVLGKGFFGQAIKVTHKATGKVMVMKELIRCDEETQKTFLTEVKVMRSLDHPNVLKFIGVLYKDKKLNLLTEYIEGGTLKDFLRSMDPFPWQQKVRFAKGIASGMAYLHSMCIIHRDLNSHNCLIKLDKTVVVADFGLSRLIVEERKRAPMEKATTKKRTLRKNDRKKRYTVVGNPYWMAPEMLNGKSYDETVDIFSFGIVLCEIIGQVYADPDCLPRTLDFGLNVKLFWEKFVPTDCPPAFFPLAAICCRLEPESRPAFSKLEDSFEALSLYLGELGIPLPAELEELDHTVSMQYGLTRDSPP

COc1cc2nc(C)nc(N[C@H](C)c3cccc(-c4cn[nH]c4)c3)c2cc1OC
Activity [1]: 89% | Activity [2]: 35% | Activity [3]: 69% | Activity [4]: 99% | Activity [5]: 100% | Activity [6]: 100% | Activity [7]: 100% | Activity [8]: 88% | Activity [9]: 67% | Activity [10]: 95% | Activity [11]: 85% | Activity [12]: 78% | Activity [13]: 94% | Activity [14]: 99% | Activity [15]: 100%

COc1cc2ncnc(N[C@H](C)c3cccc4ccccc34)c2cc1OC
Activity [1]: 46% | Activity [2]: 100% | Activity [3]: 91% | Activity [4]: 99% | Activity [5]: 100% | Activity [6]: 92% | Activity [7]: 100% | Activity [8]: 3.2% | Activity [9]: 82% | Activity [10]: 100% | Activity [11]: 86% | Activity [12]: 72% | Activity [13]: 92% | Activity [14]: 90% | Activity [15]: 92%
